From US20040185509A1, “Eosinophil prostaglandin d2 receptor assays” (priority 2001, published 2004)
“Also recorded” adds a separate entry of the source.

Key:
[1] = system: purified human eosinophils; test: Eosinophil chemokinesis (chemotactic chamber without chemoattractant in the lower chamber); format: cell-based; conditions: for stimulation of eosinophil chemokinesis (result in words): FIG. 3: BW245C 1 μM, DK-PGD2 100 nM, PAF 100 nM, IL-5 1 ng/ml, PGE2, fluprostenol and latanoprost 1 μM; for increase in eosinophil chemokinesis: data not shown
Procedure: Purified eosinophils were resuspended at 3.0×10^6 cells per ml in RPMI 1640 medium supplemented with 0.5% (v/v) fetal bovine serum. Compounds to be tested were added from 1000× concentrated stock solutions to 100 μl of cells in a 1.5 ml centrifuge tube and incubated at room temperature for 5 minutes. 100 μl of treated cells were then added to the top half of a chemotactic chamber (6.5 mm Transwell, 3.0 μm polycarbonate membrane from Costar) and 600 μl of RPMI, supplemented with 0.5% (v/v) fetal bovine serum, was added to the bottom chamber. After a 2 hour incubation at 37° C. in a CO2 chamber, the top chamber was discarded and the number of cells that had migrated to the lower chamber was evaluated by counting the cells using an hematocytometer. For each condition tested, the number of migrating eosinophils in two chemotactic chambers was averaged.
Chemokinesis was measured by incubating eosinophils with PGD2 for 5 minutes prior to their loading in the upper chamber of a chemotactic unit lacking a chemoattractant in the lower chamber. PGD2 at a concentration of […] increased eosinophil chemokinesis by 6-fold compared to cells treated with vehicle only (FIG. 3). PGD2 at concentrations of 10 nM and 1 μM increased eosinophil chemokinesis by a factor of 5 and 9-fold respectively (data not shown).

[2] = system: purified human eosinophils; test: In vitro eosinophil apoptosis assay (Annexin V/propidium iodide, flow cytometry); format: cell-based; conditions: for effect on eosinophil apoptosis / percentage of non-apoptotic eosinophils (result in words): 36 hours in culture, 1 μM, interleukin-5 at 1 ng/ml, FIG. 5
Procedure: Purified eosinophils were resuspended at 2.0×10^5 cells per ml in RPMI 1640 medium supplemented with 10% (v/v) fetal bovine serum, 2 mM glutamine, and 100 units of penicillin and streptomycin. Compounds to be tested were diluted 1:1000 to their final concentration and the cells were incubated at 37° C. in a CO2 chamber for 36 hours. The extent of apoptosis in the eosinophil population was evaluated using the TACS™ Annexin-V-FITC apoptosis detection kit (R&D systems). Non-apoptotic cells are not stained with either Annexin-V FITC or propidium iodide. Early apoptotic cells are stained with Annexin-V FITC but not propidium iodide (green fluorescence). Late apoptotic cells are stained with both Annexin-V FITC and propidium iodide (dual green and red fluorescence). Necrotic cells are only stained with propidium iodide (red fluoresecence). Labeled eosinophils were analyzed in a FACS Calibur system from Becton Dickinson.
The ability of PGD2 to modulate apoptosis in eosinophils was measured by quantifying the capacity of Annexin V to bind to phosphatidylserine on the outer membrane of apoptotic cells. (Koopman, et al., Blood 84:1415, 1994.) Necrotic cell death was determined by propidium iodide uptake. (Darzynkiewicz, et al., Cytometry 13:795, 1992.) Annexin V-FITC and propidium iodide staining of eosinophils was evaluated by FACS analysis.

[3] = system: purified human eosinophils; test: Eosinophil morphology change by light microscopy; format: cell-based
Procedure: Purified eosinophils were incubated in RPMI 1640 media supplemented with 0.5% fetal bovine serum in the presence of the compound to be tested for 15 minutes in a 24-well dish. Light microscopy was performed with an inverted Axiovert 25 (Zeiss) and images were obtained with a 35 mm SLR camera (ARIA CONTAX, Kyocera corporation) using Kodak Elite Chrome 160T film.
Vehicle-treated eosinophils were spherical and only weakly adhered to the culture dish. […] This effect was seen on the majority of eosinophils from all donors analysed (n=20).

[4] = system: purified human eosinophils; test: Eosinophil degranulation (release of ECP into the media, radioimmunoassay); format: cell-based; conditions: for release of ECP from eosinophils (result in words): FIG. 4: DK-PGD2 100 nM, BW245C 1 μM, FP and EP agonists 1 μM
Procedure: Purified eosinophils were resuspended at 3.0×10^6 cells per ml in RPMI 1640 medium supplemented with 0.5% (v/v) fetal bovine serum. Compounds to be tested were diluted 1:1000 to their final concentration in 300 μl of cells in a 1.5 ml centrifuge tube. The cells were immediately transferred to a 24-well plate. After an 1 hour incubation at 37° C. in a CO2 chamber, the cells were removed by centrifugation (4° C., 300× g, 10 minutes). Eosinophil cationic protein (ECP) in the supernatant was quantified by a double antibody radioimmunoassay (Pharmacia) following the manufacturer's protocol.
Degranulation of eosinophils was assayed by challenging freshly isolated eosinophils with PGD2 and measuring release of the eosinophil cationic protein (ECP) into the media using an ECP-specific radioimmunoassay.

eosinophils = test: Eosinophil chemotaxis (agent in the bottom chamber of the chemotactic unit); format: cell-based, human; conditions: data not shown
Procedure: Chemotaxis was measured by adding PGD2 to the bottom chamber of a chemotactic unit containing eosinophils in the top chamber.

[5] = 15 minutes, FIG. 2: DK-PGD2 10 nM, PAF 100 nM, IL-5 1 ng/ml

Molecule: O=C(O)CCC/C=C\C[C@@H]1[C@@H](/C=C/[C@@H](O)COc2cccc(C(F)(F)F)c2)[C@H](O)C[C@@H]1O (racemic) [fluprostenol]
- stimulation of eosinophil chemokinesis (result in words) [1]: failed to modulate eosinophil migration
- effect on eosinophil apoptosis / percentage of non-apoptotic eosinophils (result in words) [2]: not significant
- change in eosinophil morphology ([3]; μM doses, data not shown): did not cause, even at μM doses, any alterations of eosinophil morphology

Molecule: O=C(O)CCCCCCC1C(=O)NC(=O)N1CCC(O)C1CCCCC1 (stereo not drawn) [BW245C]
- stimulation of eosinophil chemokinesis (result in words) [1]: not BW245C was effective in stimulating eosinophil chemokinesis
- release of ECP from eosinophils (result in words) ([4]; 1 hour): not BW245C, significantly increased the release of ECP
- increase in the percentage of non-apoptotic eosinophil ([2]; BW245C 1 μM, 36 hours, over vehicle treated population, 9 donors): 17%
- change in eosinophil morphology ([3]; concentrations as high as 1 μM, panel 2c): did not affect eosinophil shape

Molecule: CCCCCC(=O)CCC1C(=O)CC(O)C1C/C=C\CCCC(=O)O (stereo not drawn) [DK-PGD2, 13,14-dihydro-15-keto-PGD2]
- stimulation of eosinophil chemokinesis (result in words) [1]: effective in stimulating eosinophil chemokinesis
- release of ECP from eosinophils (result in words) ([4]; 1 hour): significantly increased the release of ECP
- effect on eosinophil apoptosis / percentage of non-apoptotic eosinophils (result in words) [2]: no significant effect
- change in eosinophil morphology [3, 5]: induced a morphological change identical to that observed with PGD2

Molecule: CCCCC[C@H](O)/C=C/[C@H]1C(=O)C[C@H](O)[C@@H]1C/C=C\CCCC(=O)O [PGD2, Prostanglandin D2]
- increase in eosinophil chemokinesis ([1]; 10 nM): 5 fold
- increase in eosinophil chemokinesis ([1]; 1 μM): 9 fold
- increase in eosinophil chemokinesis compared to cells treated with vehicle only ([1]; 100 mM (so in the source), 5 minutes pre-treatment, 2 hours migration, FIG. 3): 6 fold
- stimulation of eosinophil chemokinesis (result in words) [1]: increased cell motility in the absence of a chemical gradient
- release of ECP from eosinophils into the media ([4]; 10 to 100 nM, 1 hour, FIG. 4): significantly increased the release of ECP
- release of the granular protein EDN from eosinophils ([4]; after PGD2 challenge, data not shown): observed the release from eosinophils of another granular protein, EDN
- extent of ECP release relative to PAF ([4]; average over donors): about half that seen with PAF
- effect on eosinophil apoptosis / percentage of non-apoptotic eosinophils (result in words) [2]: weak inhibitor of apoptotic cell death
- morphology change after a second PGD2 challenge ([3]; PGD2-treated eosinophils, data not shown): resistant to morphology changes after a second PGD2 challenge
- change in eosinophil morphology ([3]; PGD2 <10 nM, within minutes, n=20 donors): induced dramatic changes in cell morphology
- reversion of treated eosinophils to spherical shape ([3]; after PGD2 treatment): reverted to a spherical shape within six hours
- chemotactic (chemoattractant) effect on eosinophils (eosinophils; PGD2 added to the bottom chamber): not observed to exert a chemotatic effect; also recorded: did not attract eosinophils to the lower chamber
- chemotactic response of pre-incubated eosinophils to PAF or eotaxin (eosinophils; pre-incubation up to 1 μM for 5 minutes to 18 hours): did not have an altered chemotactic response

Molecule: CCCCC[C@H](O)/C=C/[C@H]1[C@H](O)CC(=O)[C@@H]1C/C=C\CCCC(=O)O [PGE2]
- stimulation of eosinophil chemokinesis (result in words) [1]: failed to modulate eosinophil migration
- effect on eosinophil apoptosis / percentage of non-apoptotic eosinophils (result in words) [2]: increased the percentage of non-apoptotic eosinophils
- change in eosinophil morphology ([3]; μM doses, data not shown): did not cause, even at μM doses, any alterations of eosinophil morphology

Molecule: CC(C)OC(=O)CCC/C=C\C[C@@H]1[C@@H](CC[C@@H](O)CCc2ccccc2)[C@H](O)C[C@@H]1O [latanoprost]
- stimulation of eosinophil chemokinesis (result in words) [1]: failed to modulate eosinophil migration
- effect on eosinophil apoptosis / percentage of non-apoptotic eosinophils (result in words) [2]: not significant
- change in eosinophil morphology ([3]; μM doses, data not shown): did not cause, even at μM doses, any alterations of eosinophil morphology

Molecule: Il-5: Recombinant human interleukin-5 produced using a baculovirus system and purified by FPLC
- stimulation of eosinophil chemokinesis (result in words) [1]: able to stimulate eosinophil chemokinesis
- effect on eosinophil apoptosis / percentage of non-apoptotic eosinophils (result in words) [2]: increased the percentage of non-apoptotic eosinophils
- change in eosinophil morphology [3, 5]: lead to a rapid change in eosinophil morphology
